Measured values reported in paper PMC3024946, “Hydroxyproline-containing collagen analogs trigger the release and activation of collagen-sequestered proMMP-2 by competition with prodomain-derived peptide P33-42” (Fibrogenesis & Tissue Repair, 2011).

Test system: ProMMP-2
Experiment: Solid-phase binding of [125I]-proMMP-2 to immobilized collagens/peptides (microwells)
Parameters: species or system human
Details: for Binding of [125I]-MMPs: ProMMP-2, 2 ng/well, coated wells, 4°C, 2 h, residual radioactivity, mean ± SD, at least five experiments in triplicate
Description: Human recombinant proMMPs and in vitro activated MMPs were obtained from Invitek and were labeled with the [^125I]-Bolton-Hunter reagent according to the manufacturer's instructions (PerkinElmer, Rodgau, Germany) before the buffer was exchanged for phosphate-buffered saline (PBS) with 0.05% (vol/vol) Tween 20 by gel filtration as described previously. Specific radioactivity for [^125I]-MMPs was 3-9 × 10^4 cpm/ng. Precipitation with 10% (wt/vol) trichloroacetic acid and 200 μg of BSA recovered 96% to 100% of protein-bound radioactivity. Aliquots of labeled MMPs were frozen and stored at -80°C. The activity and integrity were checked by substrate gel zymography using SDS-PAGE and autoradiography with overnight exposure to Biomax MS film (Kodak, Stuttgart, Germany) (Figure 2A).
Native human CI, CIII and CVI were purified from skin tissue and placenta. The CI single chains α1(I) and α2(I) were obtained and modified as described previously. To prepare defined fragments, 2 mg of α1(I) were dissolved in 1 ml of 70% (vol/vol) formic acid at room temperature, the tubes were flushed with nitrogen for 10 min, and then 2 mg of CB were added. After incubation for 4 h at 37°C, free CB was neutralized and the samples were lyophilized. The peptides CB3, CB6, CB7 and CB8 were separated from the reaction mixture by gel filtration followed by ion-exchange chromatography. The resulting peptides were characterized by amino acid analysis and SDS-PAGE [45, 46]. The CB peptides had the following melting temperatures: CB3, 23.9°C; CB6, 26.7°C; CB7, 28.1°C; and CB8, 28.0°C [31].
The following collagen analogs and control peptides were synthesized as described previously: (GPO)10, H-Gly-Cys-Hyp-(Gly-Pro-Hyp)10-Gly-Cys-Hyp-Gly-NH2; (GPP)10, H-Gly-Cys-Pro-(Gly-Pro-Pro)10-Gly-Cys-Pro-Gly-NH2; and GAP, H-Gly-Ala-Cys-(Gly-Ala-Pro)5-Gly-Phe-Hyp-Gly-Glu-Arg-(Gly-Ala-Pro)5-NH2. Peptides (POG)10, (PPG)10 and (POG)5 were purchased from Peptide International (Louisville, KY, USA). Spontaneous triple-helix assembly was approved by polarimetry over a 10-cm path length at 1°C/min in 10 mM phosphate buffer, pH 7.4. At 5 mg/ml, midpoints of melting curves occurred at 82.3 ± 1.4°C for (GPO)10 and at 45.8 ± 0.8°C for (GPP)10. […] Graphs were calculated from the primary data using a custom fitting program written by D.A. Slatter (Department of Biochemistry, University of Cambridge, Cambridge, UK [48]) to model different possible transitions. All collagens, CI derivatives and peptides were stored in stock solutions of 2 mg/ml in 150 mM acetic acid at -20°C.
ProMMP-2 and proMMP-9 or actMMP-2 and actMMP-9 were bound to nitrocellulose and polystyrene-immobilized native collagens, CI chains, CB peptides or structural analogs. Serial dilutions of collagens or CI derivatives in 150 mM acetic acid were dotted at 3 × 3 μl to a nitrocellulose membrane with high protein-binding capacity (GE Healthcare, Munich, Germany). Air-dried membranes were blocked with PBS and 0.3% (vol/vol) Tween 20 overnight at 4°C, washed three times, and incubated with 1 ng/ml [^125I]-pro- and actMMP-2 and pro- and actMMP-9 in PBS and 0.3% (vol/vol) Tween 20 for 2 h at room temperature. Membranes were washed again and air-dried, and bound MMP was monitored by autoradiography. In parallel, polystyrene microtiter plates (Dynex, Chantilly, VA, USA) were coated with collagen proteins and peptides. Here 2 μg/well or 200 ng/well proteins and peptides or BSA as control were immobilized in 100 μl of 50 mM ammonium bicarbonate buffer, pH 9.6, by overnight incubation at 4°C. Immobilization efficacies were 20% to 45% of total proteins. Wells were washed three times with PBS, and nonspecific binding sites were blocked with PBS and 0.05% (vol/vol) Tween 20 for 1 h at room temperature. All incubation steps were performed with 2 ng of [^125I]-MMPs at 4°C for 2 h. […]

Binding of [125I]-MMPs	binding of proMMP vs respective actMMP (proMMP-2 vs actMMP-2 (stated jointly for MMP-2 and MMP-9))	interaction with control peptides (pro- and act-forms of MMP-2 and MMP-9, in words)	Substance
13.0 ± 3.5 % of maximum control	two- to sevenfold more strongly	–	H-Gly-Cys-Hyp-(Gly-Pro-Hyp)10-Gly-Cys-Hyp-Gly-NH2 [(GPO)10, triple-helical Hyp-containing collagen analog]
3.6 ± 2.0 % of maximum control	–	only marginal interactions	H-Gly-Cys-Pro-(Gly-Pro-Pro)10-Gly-Cys-Pro-Gly-NH2 [(GPP)10, Triple-helical Gly-Pro-Pro (GPP)10, devoid of Hyp]
